Data taken from paper PMC8169650, “Identification of Small Molecule Inhibitors of a Mir155 Transcriptional Reporter in Th17 Cells” (Scientific Reports, 2021).

Assays:
Mir155 reporter = Mir155 reporter Beta-Glo HTS assay (β-gal activity); format: cell-based, mouse; conditions: for effect on Mir155 reporter expression / EC50: Th17 cells from Mir155 reporter mice; for effect on Mir155 reporter expression: dose response; for EC50: Mus musculus, β-gal signal, 48 h, read-out: EC50, inhibition of Mir155 reporter expression
Method: To develop an assay for the HTS screen, CD4^+ T cells were purified from spleen and lymph nodes of the Mir155 reporter mice. The purified CD4^+ T cells were cultured under Th17 cell-polarizing conditions in twelve well plates following which differentiated Th17 cells were transferred and expanded in six well plates followed by a resting period of 2 days in T cell media (schema depicted in Fig. 1a). We first optimized the cell number to maximize the assay window. To this end, differentiated Th17 cells were plated at different cell densities in the wells of polystyrene 1536-well plates under Th17 polarizing conditions. T cell activation was accomplished using two protocols. In the first protocol, magnetic beads coupled to anti-CD3 and anti-CD28 antibodies (CD3/CD28 microbeads) were added to mediate T cell activation as induction of MiR155 expression requires engagement of the TCR CD3 complex (signal 1) plus the co-stimulatory molecule CD28 (signal 2). The cells along with the beads were incubated at 37 °C, 5% CO2 for 48 h and, subsequently, high-throughput quantitation of β-gal activity was performed after 30 min of incubation using the Beta-Glo Assay system (Fig. 1b).
The NPC collection was screened at seven concentrations (top concentration 46 µM; 1:5 dilution thereafter) and drug response curves for the compounds were generated using our qHTS curve class classification algorithm as described above.
CD4^+ cells were purified from spleens and lymph nodes of Mir155 reporter mice as described above. Briefly, single cell suspensions were prepared by mechanical disruption followed by lysis of red blood cells with 0.83% ammonium chloride. CD4^+ T cells were either isolated by FACS sorting (BD FACS Aria) or were positively selected using magnetic CD4 microbeads (Miltenyi Biotec)[43]. 1 million CD4^+ cells/well were cultured in anti-CD3/CD28 (1 µg/ml each) coated 12 well plates under Th17 polarization conditions following which differentiated Th17 cells were transferred and expanded in six well plates followed by a resting period of 2 days in T cell media. A cocktail containing 10 ng/ml each of IL-6, IL-1 β, IL-21 and TGF-β (0.5 ng/ml) and IFNγ, IL-4, IL-12 neutralizing antibodies (10 μg/ml) was used for the Th17 polarizing conditions. For the HTS assay, 2000 differentiated Th17 cells/well in Th17 polarizing media were added to Greiner-one high base solid bottom white tissue culture treated 1536 well plates (catalog # 789173-F) using a small cassette and a Multidrop Combi dispenser (Thermo Fisher Scientific Inc.,Waltham, MA). Compounds were added using a Kalypsys pintool (Columns 5–48) and magnetic beads coupled to anti-CD3 and anti-CD28 (CD3/CD28 microbeads) were added to mediate T cell activation. CD3/CD28 microbeads were not added to first 2 columns and those wells served as basal control. DMSO was added to columns 3 and 4 and served as 100% signal. The plates were incubated for 48 h at 37 °C, 5% CO2, 95% humidity covered with low evaporation stainless steel lids from Kalypsys. After 48 h of incubation, 5 µl of Beta-Glo reagent (Beta Glo Assay System, Promega) was added using a Bioraptor Flying Reagent Dispenser (Aurora Discovery-BD) and the plates were incubated at room temperature for 30 min. Luminescence signal was captured using a 10 s exposure with a ViewLux (Perkin Elmer) containing a luminescent filter. Beta Glo reagent consists of Beta Glo substrate and buffer that are combined to form the Beta Glo reagent (Beta Glo Assay System, Promega).

[1] = test system: IL-17 production in Th17 cells; assay: Intracellular IL-17 flow cytometric cytokine assay under Th17 polarization; format: cell-based, mouse; conditions: for IL-17+ cells, gated on live CD4+CD44high cells / inhibition at 20 µM: 20 µM; for IL-17+ cells, gated on live CD4+CD44high cells: DMSO 32% (panel b), 36.8% (panel c); for inhibition at 20 µM: Mus musculus, 96 h, day 4, C57BL/6 CD4+ T cells, read-out: down-regulation (inhibition) of IL-17 production compared to control
Method: (§1) It has been previously shown that IL-17 production is defective in miR-155 deficient cells. […] To test the hit compounds for IL-17 downregulation, we purified naive CD4^+ T cells from C57BL/6 mice and cultured them under Th17 polarization condition. Small molecules at multiple concentrations (20 µM, 10 µM and 5 µM) were added 18 h post-plating of CD4^+ T cells on anti-CD3/CD28 coated plates and again on day 2 of culture (schema depicted in Fig. 3a).
(§2) Spleens and lymph nodes were harvested from mice and single cell suspensions were prepared by mechanical disruption followed by lysis of red blood cells with 0.83% ammonium chloride. CD4^+ T cells were either isolated by FACS sorting (BD FACS Aria) or were positively selected using magnetic CD4 microbeads (Miltenyi Biotec). For intracellular IL-17 quantitation by flow cytometry, 0.25 million cells/ well were plated in anti-CD3/CD28 (1 µg/ml) coated 48 well plates. A cocktail containing 10 ng/ml each of IL-6, IL-1 β, IL-21 and TGF-β (0.5 ng/ml) and IFNγ, IL-4, IL-12 neutralizing antibodies (10 μg/ml) was used for the Th17 polarizing conditions. All recombinant cytokines were purchased from R&D Systems and crosslinking antibodies were purified from hybridomas (Harlan). Cells were treated with small molecules at indicated concentrations at 18 h and 48 h of cell plating. On day 4 of the culture, cells were stimulated with 20 ng/ml of phorbol 12-myristate 13-acetate (PMA) and ionomycin (1 μg/ml) for 4 h in the presence of brefeldin A. Following stimulation, cells were stained with fixable viability dye (eBioscience) and surface stained for CD44 and CD4, permeabilized using cytofix/cytoperm (BD biosciences) and subsequently, stained for intracellular IL-17. Foxp3/Transcription Factor Staining kit (eBioscience) kit was used for intranuclear staining of RORγt. Samples were acquired on BD Fortessa and analyzed using Flowjo (Tree star Inc).

Th17 cells = assay: RNA-seq of CD4+ T cells under Th17 polarizing conditions; format: cell-based, mouse; conditions: 20 µM, 24 h, vs DMSO
From the text: The (E)-1-(phenylsulfonyl)-2-styryl-1H-benzo[d] imidazoles were identified from the diversity library and the target for these compounds is not known. We investigated the possible molecular mechanism(s) regulating impaired Th17 cell function using whole-transcriptome RNA-sequencing (RNA-seq) of CD4^+ T cells treated with NCGC00108246 or NCGC00108250 (representative imidazole compounds) under Th17 polarizing conditions. We performed differential gene expression to compare the two imidazole-treated conditions (n = 6) to DMSO (n = 3). Imidazole treated samples (NCGC00108246 or NCGC00108250) had similar gene expression profiles and clustered together, and distinct from DMSO. […] We confirmed down-regulation of IL-17 cytokines (IL-17a and IL-17f.) in NCGC00108246 or NCGC00108250 treated cells (Fig. 4a,b). […] In alignment with the protein data, transcript levels for Th17 cell-specific transcription factor RORγt encoded by Rorc gene were not affected after treatment with imidazoles (Fig. S2b,c).
For RNA seq, T cells were treated with compounds for 24 h in Th17 polarizing conditions, following which RNA was extracted using the mirVana kit (Applied Biosystems). Qubit RNA broad range assay in the Qubit Flurometer (Invitrogen) was used to measure RNA concentration, following which RNA integrity was determined with Eukaryote Total RNA Nano Series II ChIP on a 2100 Bioanalyzer (Agilent). TruSeq RNA sample preparation kit (Illumina) was used to prepare RNA-seq libraries. Briefly, oligo-dT purified mRNA was fragmented and subjected to first and second strand cDNA synthesis. cDNA fragments were blunt ended, ligated to Illumina adaptors and PCR amplified to enrich for the fragments ligated to adaptors. The resulting cDNA libraries were verified and quantified on Agilent Bioanalyzer and single-end 96 cycle sequencing was conducted (Illumina) as previously described.
For data analysis, RNA-seq reads were aligned to the mm10 genome and the GRCm38 v87 transcriptome with STAR v2.5.2a[44] using default parameters and output tracks normalized by RPM (–outWigNorm RPM). RSEM v1.3[45] was used to calculate gene counts and TPMs on the transcriptome-aligned reads as previously described[16],[43]. Differential expression analysis was performed in R v3.5.2, using DESeq2[46] v1.22.2, resulting in 2328 differentially expressed genes when contrasting NCGC00108246 or NCGC00108250 treated samples versus DMSO controls. […] The volcano plot was generated with the R package (R-project.org at https://www.R-project.org/), Enhanced Volcano. Heatmaps were generated with the R package, pheatmap. Integrative Genomics Viewer v2.4.19[48] was used for visualization of normalized bigwig tracks.

CD4+ T cells = assay: Viability dye and CD44 activation staining in the IL-17 flow cytometric assay; format: cell-based; conditions: Fig. S2a
Method: as §1, §2

[2] = fresh batch compared to older batch

| SMILES | effect on Mir155 reporter expression (Mir155 reporter) | EC50 (Mir155 reporter) | IL-17+ cells, gated on live CD4+CD44high cells [1] | inhibition at 20 µM [1] | other results |
| --- | --- | --- | --- | --- | --- |
| Clc1cccc(C(c2ccc3[nH]cnc3c2)n2ccnc2)c1 (stereo not shown) [liarozole, reference compound] | either modest down-regulators or did not affect Mir155 reporter expression |  |  |  |  |
| OC(Cn1cncn1)(Cn1cncn1)c1ccc(F)cc1F [fluconazole, reference compound] | either modest down-regulators or did not affect Mir155 reporter expression |  |  |  |  |
| CCOc1ccc(/C=C/c2nc3ccccc3n2S(=O)(=O)c2cccc(Cl)c2)cc1 [NCGC00108246] |  | 3.5 µM | 3.1% | 90% | IL-17a and IL-17f transcripts (Th17 cells): down-regulation; IL-22 and IL-23r transcripts (Th17 cells): down-regulated |
| Cc1ccc(/C=C/c2nc3ccccc3n2S(=O)(=O)c2ccc(Br)cc2)cc1 [NCGC00140607] |  | 3.7 µM | 16.6% | 55% |  |
| c1ccc(-c2ccc(C(c3ccccc3)n3ccnc3)cc2)cc1 (stereo not shown) [bifonazole, reference compound] | either modest down-regulators or did not affect Mir155 reporter expression |  |  |  |  |
| Cc1ccc(/C=C/c2nc3ccccc3n2S(=O)(=O)c2cccc(Cl)c2)cc1 [NCGC00140605] |  | 0.6 µM | 13.1% | 65% |  |
| CCOc1ccc(/C=C/c2nc3ccccc3n2S(=O)(=O)c2ccc(Br)cc2)cc1 [NCGC00108244] |  | 12.6 µM | 30.4% | 17% |  |
| CSc1ccc(/C=C/c2nc3ccccc3[nH]2)cc1 [NCGC00507974, (E)-2-(4-(methylthio)styryl)-1H-benzo[d] imidazole] | dose dependent reduction of Mir155 reporter expression | 1.2 µM |  |  | effect on IL-17 production ([1]; C57BL/6 CD4+ T cells, Th17 polarization): dose-dependent inhibition of IL-17 production |
| CSc1ccc(/C=C/c2nc3ccccc3n2S(=O)(=O)c2cccc(Cl)c2)cc1 [NCGC00108250] |  | 2 µM | 4.4% | 88% | live cells (fixable viability dye, Live-dead) (CD4+ T cells; DMSO 77.4% / 80.6%): 80.5%; CD4+ CD44+ cells (CD4+ T cells; DMSO 97.2% / 98.2%): 96.1%; IL-17 / RORγt plot, percent cells, gated on live CD4+CD44high ([1]; Fig. S2b, DMSO 32.4% / 21.2%): 3.2%; IL-17a and IL-17f transcripts (Th17 cells): down-regulation; IL-22 and IL-23r transcripts (Th17 cells): down-regulated |
| CC(=O)N1CCN(c2ccc(OCC3COC(Cn4ccnc4)(c4ccc(Cl)cc4Cl)O3)cc2)CC1 (stereo not shown) [ketoconazole, reference compound] | either modest down-regulators or did not affect Mir155 reporter expression |  |  |  |  |
| CSc1ccc(/C=C/c2nc3ccccc3n2S(=O)(=O)c2ccc(Br)cc2)cc1 [NCGC00108248, (E)-1-((4-bromophenyl)sulfonyl)-2-(4-(methylthio)styryl)-1H-benzo[d] imidazole] |  | 2.2 µM | 3.8% | 90% | activity in miR-155 HTS assay, solutions of fresh powders (Mir155 reporter; [2]): inactive or demonstrated attenuated activity; inhibition of IL-17, solutions of fresh powders [1, 2]: not potent inhibitors of IL-17 |
